What was measured:
[1] = molecular target: T1, Full length Human HDAC6 (Homo sapiens, UniProt Q9UBN7); assay: Caliper endpoint assay for HDAC enzymatic activity (HDAC6); assay type: biochemical; conditions: for IC50: in vitro enzymatic, Caliper endpoint assay, 30 min pre-incubation, 1 μM substrate peptide; for Selectivity (6 v 8): ratio of HDAC8 IC50/HDAC6 IC50
T1 construct: Full length Human HDAC6; FLAG (C); host or cells: baculovirus expression system
T1 sequence (Q9UBN7 1-1215): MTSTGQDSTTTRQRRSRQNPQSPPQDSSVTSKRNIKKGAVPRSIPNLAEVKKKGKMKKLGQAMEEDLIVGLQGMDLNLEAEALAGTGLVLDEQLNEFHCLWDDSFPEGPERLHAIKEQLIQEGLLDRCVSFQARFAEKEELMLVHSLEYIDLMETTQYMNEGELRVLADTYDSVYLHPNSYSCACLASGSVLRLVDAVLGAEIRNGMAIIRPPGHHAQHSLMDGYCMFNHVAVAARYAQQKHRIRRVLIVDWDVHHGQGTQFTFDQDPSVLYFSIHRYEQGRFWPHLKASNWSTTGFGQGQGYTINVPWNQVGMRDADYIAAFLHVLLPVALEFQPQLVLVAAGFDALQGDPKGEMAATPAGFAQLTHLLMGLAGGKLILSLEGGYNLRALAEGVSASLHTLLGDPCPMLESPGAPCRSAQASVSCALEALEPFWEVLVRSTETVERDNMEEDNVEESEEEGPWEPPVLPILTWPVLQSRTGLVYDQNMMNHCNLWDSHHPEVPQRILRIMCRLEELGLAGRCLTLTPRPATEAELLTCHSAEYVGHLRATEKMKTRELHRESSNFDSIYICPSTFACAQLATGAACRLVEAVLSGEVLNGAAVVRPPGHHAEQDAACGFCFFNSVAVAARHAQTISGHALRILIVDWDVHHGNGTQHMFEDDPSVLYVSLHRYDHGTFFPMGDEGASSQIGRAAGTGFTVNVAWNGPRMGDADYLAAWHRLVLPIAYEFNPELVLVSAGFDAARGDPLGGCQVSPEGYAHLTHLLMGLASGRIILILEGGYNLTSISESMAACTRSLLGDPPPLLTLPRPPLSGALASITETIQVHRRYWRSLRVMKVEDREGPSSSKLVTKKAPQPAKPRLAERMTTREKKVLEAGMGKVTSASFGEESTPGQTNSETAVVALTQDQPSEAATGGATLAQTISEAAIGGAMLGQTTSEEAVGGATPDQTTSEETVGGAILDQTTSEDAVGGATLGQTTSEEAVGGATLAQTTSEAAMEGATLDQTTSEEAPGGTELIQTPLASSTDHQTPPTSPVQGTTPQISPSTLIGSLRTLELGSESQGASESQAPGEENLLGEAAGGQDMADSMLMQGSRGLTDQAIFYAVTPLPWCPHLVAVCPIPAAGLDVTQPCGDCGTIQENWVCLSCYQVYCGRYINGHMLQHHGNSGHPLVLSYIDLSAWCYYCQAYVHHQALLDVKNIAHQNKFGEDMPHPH

[2] = molecular target: T2, Full length Human HDAC8 (Homo sapiens, UniProt Q9BY41); assay: Caliper endpoint assay for HDAC enzymatic activity (HDAC8); assay type: biochemical; conditions: in vitro enzymatic, 30 min pre-incubation, 1 μM substrate peptide
T2 construct: Full length Human HDAC8; HIS (N); host or cells: baculovirus expression system
T2 sequence (Q9BY41 1-377): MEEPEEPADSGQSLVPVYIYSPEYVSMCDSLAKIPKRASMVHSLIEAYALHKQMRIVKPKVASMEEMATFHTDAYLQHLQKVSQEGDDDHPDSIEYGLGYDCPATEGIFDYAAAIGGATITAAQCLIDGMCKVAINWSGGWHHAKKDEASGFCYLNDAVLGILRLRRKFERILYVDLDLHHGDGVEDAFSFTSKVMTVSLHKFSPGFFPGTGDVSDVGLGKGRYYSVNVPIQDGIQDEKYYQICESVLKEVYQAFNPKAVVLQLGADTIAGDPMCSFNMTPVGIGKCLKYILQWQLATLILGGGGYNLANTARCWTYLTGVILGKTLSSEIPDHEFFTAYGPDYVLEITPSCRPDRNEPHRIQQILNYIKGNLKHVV

Structure (SMILES) | IC50 [1] [µM] | Selectivity (6 v 8) [1] | IC50 [2] [µM]
CC[C@@H](c1ccc(C(=O)NO)cc1F)N1CCC2(CCCCC2)C1 (single isomer, unassigned) [Compound 237] | 0.1 to 1 | II (II: >1-10) | 1 to 10
CC[C@@H]1Cc2c(F)cc(C(=O)NO)cc2CN1C[C@]12C[C@H](CO1)N(C)C2 (single isomer, unassigned) [Compound 554] | 0.001 to 0.1 | IV (IV: >100-1000) | 1 to 10
O=C(NO)c1cc(F)c2c(c1)CN(C[C@@H]1CCCCO1)CC2 (single isomer, unassigned) [Compound 214] | 0.001 to 0.1 | III (III: >10-100) | 1 to 10
O=C(NO)c1cc(F)c2c(c1)CN(C[C@H]1CCCCO1)CC2 (single isomer, unassigned) [Compound 215] | 0.001 to 0.1 | II (II: >1-10) | 0.1 to 1
CC[C@@H]1Cc2c(F)cc(C(=O)NO)cc2CN1CC12CC(NC)(C1)C2 (single isomer, unassigned) [Compound 524] | 0.001 to 0.1 | III (III: >10-100) | 1 to 10
CC[C@@H]1Cc2c(F)cc(C(=O)NO)cc2CN1C[C@H]1CCCCO1 (single isomer, unassigned) [Compound 230] | 0.001 to 0.1 | III (III: >10-100) | 1 to 10
CC[C@H]1N(Cc2ccc(C(=O)NO)cc2F)CC12CCCC2 [Compound 169] | 0.001 to 0.1 |  | 1 to 10
O=C(NO)c1ccc2c(c1)CN1CCC[C@H]21 [Compound 164] | 1 to 10 | II (II: >1-10) | 1 to 10
CC[C@H]1Cc2c(F)cc(C(=O)NO)cc2CN1C[C@]12C[C@H](CO1)N(C)C2 (single isomer, unassigned) [Compound 552] | 0.001 to 0.1 | IV (IV: >100-1000) | 10 to 100
[2H]c1cc2c(cc1C(=O)NO)CCN(C1CC3(CCCCC3)C1)C2 [Compound 504, N-hydroxy-2-(spiro[3.5]nonan-2-yl)-1,2,3,4-tetrahydroisoquinoline-7-d-6-carboxamide] | 0.1 to 1 | IV (IV: >100-1000) | 10 to 100
C[C@@H]1CC[C@H]2c3c(F)cc(C(=O)NO)cc3CCN12 (single isomer, unassigned) [Compound 158] | 0.001 to 0.1 |  | 1 to 10
O=C(NO)c1cc(F)c2c(c1)CN1CCCC[C@@H]1C2 [Compound 145] | 0.001 to 0.1 | IV (IV: >100-1000) | 10 to 100

The remaining lines, values ahead:

IC50 [1] [µM] | Selectivity (6 v 8) [1] | IC50 [2] [µM] | Structure (SMILES)
0.001 to 0.1 | IV (IV: >100-1000) | 10 to 100 | O=C(NO)c1cc(F)c2c(c1)CCN([C@H]1CCCC3(CCC3)C1)C2 (single isomer, unassigned) [Compound 195]
0.001 to 0.1 | V (V: >1000) | 10 to 100 | O=C(NO)c1cc(F)c2c(c1)CCN([C@@H]1CCCC3(CCC3)C1)C2 (single isomer, unassigned) [Compound 194]
0.001 to 0.1 | IV (IV: >100-1000) | 10 to 100 | O=C(NO)c1cc(F)c2c(c1)CCN([C@H]1C[C@]3(CCCNC3)C1)C2 (single isomer, unassigned) [Compound 341, 8-fluoro-N-hydroxy-2-((2r,4s)-6-azaspiro[3.5]nonan-2-yl)-1,2,3,4-tetrahydroisoquinoline-6-carboxamide]
0.1 to 1 | IV (IV: >100-1000) | 10 to 100 | CC[C@H]1Cc2c(F)cc(C(=O)NO)cc2CN1C1CC2(CCN(C3CC3)CC2)C1 (single isomer, unassigned) [Compound 599]
0.001 to 0.1 | IV (IV: >100-1000) | 10 to 100 | CC(=O)N1CCC[C@]2(C1)C[C@@H](N1CCc3cc(C(=O)NO)cc(F)c3C1)C2 (single isomer, unassigned) [Compound 349, 2-(6-acetyl-6-azaspiro[3.5]nonan-2-yl)-8-fluoro-3,4-dihydro-1H-isoquinoline-6-carbohydroxamic acid]
10 to 100 |  | > 100 | O=C(NO)c1cc(F)c2c(c1)C[C@H]1COCCN1C2 (single isomer, unassigned) [Compound 130]
0.001 to 0.1 | IV (IV: >100-1000) | 1 to 10 | CN1C[C@@]2(CN3CCc4cc(C(=O)NO)cc(F)c4C3)C[C@@H]1CO2 [Compound 474, 8-fluoro-2-[[(1S,4R)-5-methyl-2-oxa-5-azabicyclo[2.2.1]heptan-1-yl]methyl]-3,4-dihydro-1H-isoquinoline-6-carbohydroxamic acid]
0.001 to 0.1 | IV (IV: >100-1000) | 10 to 100 | CC(=O)N1CC2(CCC(CN3CCc4cc(C(=O)NO)cc(F)c4C3)CC2)C1 [Compound 467, 2-[(2-acetyl-2-azaspiro[3.5]nonan-7-yl)methyl]-8-fluoro-3,4-dihydro-1H-isoquinoline-6-carbohydroxamic acid]
0.001 to 0.1 | IV (IV: >100-1000) | 10 to 100 | CC(=O)N1CC2(CCC(N3CCc4cc(C(=O)NO)cc(F)c4C3)CC2)C1 [Compound 429, 2-(2-acetyl-2-azaspiro[3.5]nonan-7-yl)-8-fluoro-3,4-dihydro-1H-isoquinoline-6-carbohydroxamic acid]
0.1 to 1 | IV (IV: >100-1000) | 10 to 100 | CC[C@@H]1Cc2c(F)cc(C(=O)NO)cc2CN1C1CC2(CCCCC2)C1 (single isomer, unassigned) [Compound 232]
0.001 to 0.1 | IV (IV: >100-1000) | 1 to 10 | O=C(NO)c1cc(F)c2c(c1)CCN([C@H]1C[C@]3(CCCN(C4CC4)C3)C1)C2 (single isomer, unassigned) [Compound 345, 2-((2r,4s)-6-cyclopropyl-6-azaspiro[3.5]nonan-2-yl)-8-fluoro-N-hydroxy-1,2,3,4-tetrahydroisoquinoline-6-carboxamide]
0.001 to 0.1 | IV (IV: >100-1000) | 1 to 10 | CN1CCC2(CCC2N2CCc3cc(C(=O)NO)cc(F)c3C2)CC1 (stereo not drawn) [Compound 358, 8-fluoro-2-(7-methyl-7-azaspiro[3.5]nonan-3-yl)-3,4-dihydro-1H-isoquinoline-6-carbohydroxamic acid]
0.001 to 0.1 | IV (IV: >100-1000) | 1 to 10 | O=C(NO)c1cc(F)c2c(c1)CCN(C1CC3(CNC3)C1)C2 [Compound 289, 2-(2-azaspiro[3.3]heptan-6-yl)-8-fluoro-3,4-dihydro-1H-isoquinoline-6-carbohydroxamic acid]
0.1 to 1 | III (III: >10-100) | 10 to 100 | CN1CCC[C@@]2(CC[C@H]2N2CCc3cc(C(=O)NO)cc(F)c3C2)C1 (single isomer, unassigned) [Compound 362]
0.001 to 0.1 | V (V: >1000) | 10 to 100 | O=C(NO)c1cc(F)c2c(c1)CCN([C@@H]1CC[C@]13CCOC3)C2 (single isomer, unassigned) [Compound 318]
0.001 to 0.1 | IV (IV: >100-1000) | 10 to 100 | CN1CC[C@]2(CC[C@@H]2N2CCc3cc(C(=O)NO)cc(F)c3C2)C1 (single isomer, unassigned) [Compound 330]
0.001 to 0.1 | IV (IV: >100-1000) | 10 to 100 | O=C(NO)c1cc(F)c2c(c1)CCN(CC1C3CNCC1C3)C2 (stereo not drawn) [Compound 493]

Reference: patent US12655106B2 (Eikonizo Therapeutics, Inc., priority 2021, dated 2026)
